Tests used:
Experiment in all cases: Standardized radiometric kinase assays, percentage of activity at 0.5 μM;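 further: Read-out is ³³P-labelled substrate protein phosphorylated by each kinase, captured on filters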
[1] = target: each individual kinase of the panel (Homo sapiens, UniProt Q16620)
[2] = target: each individual kinase of the panel (Homo sapiens, UniProt Q00526)
[3] = target: each individual kinase of the panel (Homo sapiens, UniProt P21709)
[4] = target: each individual kinase of the panel (Homo sapiens, UniProt Q08881)
[5] = target: each individual kinase of the panel (Homo sapiens, UniProt Q86Z02)
[6] = target: each individual kinase of the panel (Homo sapiens, UniProt Q8NG66)
[7] = target: each individual kinase of the panel (Homo sapiens, UniProt Q05655)
[8] = target: each individual kinase of the panel (Homo sapiens, UniProt P22607)
each individual kinase of the panel (Homo sapiens, UniProt P22607), sequence (P22607 23-806 limits assumed): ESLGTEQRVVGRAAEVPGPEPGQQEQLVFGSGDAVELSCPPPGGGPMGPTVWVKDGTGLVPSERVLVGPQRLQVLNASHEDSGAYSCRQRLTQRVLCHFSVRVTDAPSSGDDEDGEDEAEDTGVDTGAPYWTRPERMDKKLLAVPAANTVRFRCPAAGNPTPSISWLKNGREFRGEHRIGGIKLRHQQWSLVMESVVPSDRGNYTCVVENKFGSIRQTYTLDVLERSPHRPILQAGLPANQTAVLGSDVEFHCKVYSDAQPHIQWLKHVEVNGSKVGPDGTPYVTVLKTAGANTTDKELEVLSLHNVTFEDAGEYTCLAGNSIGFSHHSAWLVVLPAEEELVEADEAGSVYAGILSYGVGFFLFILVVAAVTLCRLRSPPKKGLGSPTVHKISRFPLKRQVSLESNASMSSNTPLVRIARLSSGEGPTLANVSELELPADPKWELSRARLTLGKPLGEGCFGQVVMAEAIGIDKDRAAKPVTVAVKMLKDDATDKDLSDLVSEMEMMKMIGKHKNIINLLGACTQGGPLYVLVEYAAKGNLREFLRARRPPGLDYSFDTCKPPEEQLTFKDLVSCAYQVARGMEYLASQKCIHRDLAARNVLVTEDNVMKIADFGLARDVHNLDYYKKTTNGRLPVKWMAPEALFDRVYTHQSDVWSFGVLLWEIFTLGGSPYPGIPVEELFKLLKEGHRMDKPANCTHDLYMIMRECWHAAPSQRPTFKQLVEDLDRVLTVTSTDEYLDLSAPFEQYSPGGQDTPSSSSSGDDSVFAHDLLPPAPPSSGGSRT

[9] = target: each individual kinase of the panel (Homo sapiens, UniProt P48730)
[10] = target: each individual kinase of the panel (Homo sapiens, UniProt P54762)
each individual kinase of the panel (Homo sapiens, UniProt P54762), sequence (P54762 18-984 limits assumed): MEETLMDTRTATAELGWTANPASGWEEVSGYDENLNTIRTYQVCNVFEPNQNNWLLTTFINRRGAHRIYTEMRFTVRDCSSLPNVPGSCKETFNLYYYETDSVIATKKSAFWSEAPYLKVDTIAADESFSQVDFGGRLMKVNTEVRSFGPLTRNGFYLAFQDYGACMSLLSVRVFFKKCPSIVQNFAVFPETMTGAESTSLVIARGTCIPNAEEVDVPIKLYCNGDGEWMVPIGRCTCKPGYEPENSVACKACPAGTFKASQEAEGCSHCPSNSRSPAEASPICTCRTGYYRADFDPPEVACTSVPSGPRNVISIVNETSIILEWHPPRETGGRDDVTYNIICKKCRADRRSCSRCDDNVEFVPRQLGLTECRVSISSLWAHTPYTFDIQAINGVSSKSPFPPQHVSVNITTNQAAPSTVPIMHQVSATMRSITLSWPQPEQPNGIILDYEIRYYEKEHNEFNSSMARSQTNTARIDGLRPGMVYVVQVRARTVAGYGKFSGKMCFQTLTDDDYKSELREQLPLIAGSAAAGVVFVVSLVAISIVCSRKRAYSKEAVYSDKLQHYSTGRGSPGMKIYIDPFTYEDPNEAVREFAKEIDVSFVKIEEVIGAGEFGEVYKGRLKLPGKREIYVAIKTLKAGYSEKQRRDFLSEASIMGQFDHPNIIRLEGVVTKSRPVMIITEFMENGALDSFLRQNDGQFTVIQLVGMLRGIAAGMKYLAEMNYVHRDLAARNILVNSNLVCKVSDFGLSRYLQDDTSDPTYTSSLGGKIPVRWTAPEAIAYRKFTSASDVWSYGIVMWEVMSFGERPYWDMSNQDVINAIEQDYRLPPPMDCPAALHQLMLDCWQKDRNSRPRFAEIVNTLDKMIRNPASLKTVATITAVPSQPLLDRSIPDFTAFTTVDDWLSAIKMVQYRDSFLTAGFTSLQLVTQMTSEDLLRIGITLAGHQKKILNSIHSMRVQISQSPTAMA

[11] = target: each individual kinase of the panel (Homo sapiens, UniProt O75116)
[12] = target: each individual kinase of the panel (Homo sapiens, UniProt Q9BYT3)
[13] = target: each individual kinase of the panel (Homo sapiens, UniProt Q9H2G2)
[14] = target: each individual kinase of the panel (Homo sapiens, UniProt Q8TDC3)
[15] = target: each individual kinase of the panel (Homo sapiens, UniProt Q8N4C8)
[16] = target: each individual kinase of the panel (Homo sapiens, UniProt Q8N568)
[17] = target: each individual kinase of the panel (Homo sapiens, UniProt Q96BR1)
[18] = target: each individual kinase of the panel (Homo sapiens, UniProt P29322)
each individual kinase of the panel (Homo sapiens, UniProt P29322), sequence (P29322 28-1005 limits assumed): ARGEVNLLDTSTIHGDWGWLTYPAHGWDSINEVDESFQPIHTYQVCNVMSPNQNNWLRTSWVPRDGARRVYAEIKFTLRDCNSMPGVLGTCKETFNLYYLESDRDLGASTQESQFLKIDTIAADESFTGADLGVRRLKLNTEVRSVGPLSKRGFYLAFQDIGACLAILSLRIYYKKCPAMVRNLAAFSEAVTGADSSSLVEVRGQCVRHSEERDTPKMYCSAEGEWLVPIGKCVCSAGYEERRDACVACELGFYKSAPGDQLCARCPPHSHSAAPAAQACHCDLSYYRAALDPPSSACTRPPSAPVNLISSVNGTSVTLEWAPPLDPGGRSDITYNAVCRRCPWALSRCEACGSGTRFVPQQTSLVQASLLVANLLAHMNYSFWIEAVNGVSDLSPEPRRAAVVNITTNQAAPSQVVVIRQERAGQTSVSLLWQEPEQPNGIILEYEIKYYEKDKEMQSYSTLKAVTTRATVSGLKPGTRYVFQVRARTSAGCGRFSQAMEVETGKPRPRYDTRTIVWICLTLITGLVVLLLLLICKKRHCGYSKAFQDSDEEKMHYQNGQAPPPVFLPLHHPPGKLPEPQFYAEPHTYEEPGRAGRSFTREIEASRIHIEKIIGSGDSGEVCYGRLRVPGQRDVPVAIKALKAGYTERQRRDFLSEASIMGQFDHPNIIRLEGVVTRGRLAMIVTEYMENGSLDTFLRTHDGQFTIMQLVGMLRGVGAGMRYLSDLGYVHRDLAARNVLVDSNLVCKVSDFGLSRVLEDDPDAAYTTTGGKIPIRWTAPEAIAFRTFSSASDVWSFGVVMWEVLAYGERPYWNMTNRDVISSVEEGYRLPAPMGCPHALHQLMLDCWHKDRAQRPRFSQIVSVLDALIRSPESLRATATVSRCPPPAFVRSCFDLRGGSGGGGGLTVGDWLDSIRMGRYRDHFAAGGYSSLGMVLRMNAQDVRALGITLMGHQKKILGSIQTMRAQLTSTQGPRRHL

[19] = target: each individual kinase of the panel (Homo sapiens, UniProt Q7KZI7)
[20] = target: each individual kinase of the panel (Homo sapiens, UniProt Q16513)
[21] = target: each individual kinase of the panel (Homo sapiens, UniProt P22455)
each individual kinase of the panel (Homo sapiens, UniProt P22455), sequence (P22455 22-802 limits assumed): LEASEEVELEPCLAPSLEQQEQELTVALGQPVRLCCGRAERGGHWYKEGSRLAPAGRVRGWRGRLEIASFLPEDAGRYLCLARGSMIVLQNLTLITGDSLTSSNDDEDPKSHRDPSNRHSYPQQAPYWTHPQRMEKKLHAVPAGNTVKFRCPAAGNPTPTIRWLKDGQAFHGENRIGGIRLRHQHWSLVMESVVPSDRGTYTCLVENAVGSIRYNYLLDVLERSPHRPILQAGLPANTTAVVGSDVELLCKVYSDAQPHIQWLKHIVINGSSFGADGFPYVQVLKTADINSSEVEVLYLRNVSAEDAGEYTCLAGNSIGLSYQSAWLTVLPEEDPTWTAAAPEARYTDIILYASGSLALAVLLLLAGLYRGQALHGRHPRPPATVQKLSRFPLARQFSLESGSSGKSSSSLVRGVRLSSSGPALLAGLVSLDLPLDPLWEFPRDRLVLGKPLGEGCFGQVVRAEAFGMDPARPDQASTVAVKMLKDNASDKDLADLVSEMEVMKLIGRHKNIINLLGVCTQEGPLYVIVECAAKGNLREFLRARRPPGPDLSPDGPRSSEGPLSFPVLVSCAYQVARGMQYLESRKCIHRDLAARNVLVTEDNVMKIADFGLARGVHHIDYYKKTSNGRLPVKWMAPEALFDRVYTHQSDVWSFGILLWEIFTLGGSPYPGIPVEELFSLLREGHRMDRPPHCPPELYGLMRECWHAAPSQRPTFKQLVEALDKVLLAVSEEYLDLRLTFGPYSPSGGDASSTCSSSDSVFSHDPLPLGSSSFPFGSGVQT

[22] = target: each individual kinase of the panel (Homo sapiens, UniProt P41743)
[23] = target: each individual kinase of the panel (Homo sapiens, UniProt P45983)
[24] = target: each individual kinase of the panel (Homo sapiens, UniProt P29317)
each individual kinase of the panel (Homo sapiens, UniProt P29317), sequence (P29317 24-976 limits assumed): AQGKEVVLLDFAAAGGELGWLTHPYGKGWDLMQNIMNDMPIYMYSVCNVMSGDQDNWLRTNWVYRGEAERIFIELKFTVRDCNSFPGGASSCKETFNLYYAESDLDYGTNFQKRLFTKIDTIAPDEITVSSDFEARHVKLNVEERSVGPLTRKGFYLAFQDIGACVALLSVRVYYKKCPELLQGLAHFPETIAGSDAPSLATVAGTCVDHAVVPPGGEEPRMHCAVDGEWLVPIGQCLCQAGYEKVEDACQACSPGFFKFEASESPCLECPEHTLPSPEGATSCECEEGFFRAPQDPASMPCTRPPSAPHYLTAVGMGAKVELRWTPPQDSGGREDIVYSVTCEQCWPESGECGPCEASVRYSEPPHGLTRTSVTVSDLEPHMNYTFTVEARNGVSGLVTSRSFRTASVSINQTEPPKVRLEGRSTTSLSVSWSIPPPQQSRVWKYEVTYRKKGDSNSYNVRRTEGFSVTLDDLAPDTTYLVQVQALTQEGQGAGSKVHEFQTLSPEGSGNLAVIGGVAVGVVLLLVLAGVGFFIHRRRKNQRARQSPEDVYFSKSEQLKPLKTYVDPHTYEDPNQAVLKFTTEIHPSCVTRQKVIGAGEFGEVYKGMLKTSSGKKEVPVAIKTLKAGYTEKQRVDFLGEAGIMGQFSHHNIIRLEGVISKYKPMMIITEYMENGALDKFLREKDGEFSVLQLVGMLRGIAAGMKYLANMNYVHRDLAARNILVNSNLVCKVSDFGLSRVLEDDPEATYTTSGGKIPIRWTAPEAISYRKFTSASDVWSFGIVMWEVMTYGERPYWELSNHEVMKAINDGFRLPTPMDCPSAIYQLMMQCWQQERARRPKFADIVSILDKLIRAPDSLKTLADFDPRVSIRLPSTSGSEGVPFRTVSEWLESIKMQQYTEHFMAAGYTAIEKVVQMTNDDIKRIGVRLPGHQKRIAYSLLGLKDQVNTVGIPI

[25] = target: each individual kinase of the panel (Homo sapiens, UniProt Q13555)
[26] = target: each individual kinase of the panel (Homo sapiens, UniProt O15146)
[27] = target: each individual kinase of the panel (Homo sapiens, UniProt Q16644)
[28] = target: each individual kinase of the panel (Homo sapiens, UniProt Q96RG2)
[29] = target: each individual kinase of the panel (Homo sapiens, UniProt Q06187)
[30] = target: each individual kinase of the panel (Mus musculus, UniProt P63085)
each individual kinase of the panel (Mus musculus, UniProt P63085), sequence (P63085 2-358 limits assumed): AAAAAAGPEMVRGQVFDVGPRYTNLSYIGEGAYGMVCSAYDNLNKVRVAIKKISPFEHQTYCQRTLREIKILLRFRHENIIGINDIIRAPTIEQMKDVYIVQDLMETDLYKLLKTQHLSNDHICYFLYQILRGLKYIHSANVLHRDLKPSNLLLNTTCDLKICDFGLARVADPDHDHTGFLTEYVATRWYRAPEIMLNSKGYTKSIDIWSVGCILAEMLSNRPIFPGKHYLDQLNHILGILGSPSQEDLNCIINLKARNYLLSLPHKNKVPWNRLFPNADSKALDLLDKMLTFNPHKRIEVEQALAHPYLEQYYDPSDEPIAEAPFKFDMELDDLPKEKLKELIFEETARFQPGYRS

[31] = target: each individual kinase of the panel (Homo sapiens, UniProt Q9NQU5)

C#Cc1cccc(Nc2nc3cc(C(=O)O)ccc3c3cncnc23)c1 [drawing 1135]
TRKB percentage of activity [1]: 10%
CDK3/cyclinE percentage of activity [2]: −19%
EPHA1 percentage of activity [3]: −6%
ITK;Itk(h) percentage of activity [4]: 0%
HIPK1 percentage of activity [5]: 90%
NEK11 percentage of activity [6]: −2%
PRKCD percentage of activity [7]: 7%
FGFR3 percentage of activity [8]: −2%
CK1 delta percentage of activity [9]: −4%
EPHB1 percentage of activity [10]: 1%
ROCK-II percentage of activity [11]: −4%
STK33 percentage of activity [12]: 0%
SLK percentage of activity [13]: −15%
BRSK1 percentage of activity [14]: −1%
MINK percentage of activity [15]: −13%
DCAMKL2 percentage of activity [16]: −3%
SGK3 percentage of activity [17]: 2%
EPHA8 percentage of activity [18]: −15%
PAR-1B alpha percentage of activity [19]: 7%
PRK2 percentage of activity [20]: 3%
FGFR4 percentage of activity [21]: 14%
PRKCI percentage of activity [22]: −5%
JNK1A1 percentage of activity [23]: −9%
EPHA2 percentage of activity [24]: 2%
CAMK2G percentage of activity [25]: 36%
MUSK percentage of activity [26]: −6%
MAPKAPK3 percentage of activity [27]: −8%
PASK percentage of activity [28]: 87%
BTK percentage of activity [29]: −5%
MAPK2(m) percentage of activity [30]: −6%
PAK6 percentage of activity [31]: −14%
